Results reported in US20230032623A1, “Tumor-on-a-chip” (NEW YORK UNIVERSITY, priority 2021, published 2023).
“Also recorded” adds a separate entry of the source.

Assays:
Format in all cases: cell-based, human
allogeneic CD8+ T-cells [1] = test: Allogeneic CD8+ T-cell extravasation/infiltration across brain microvessels in GBM-on-a-Chip; conditions: BLZ945 0.1 μg/ml, nivolumab 1 μg/ml, mono or dual, every 24 hr for 3 days, PN, CL, MES GBM
Method: (§1) Patient-derived GBM cells were firstly dissociated with Accutase (Innovative Cell Technologies), and then labeled with CellTracker Red (5 μM, C34552, Thermo Fisher-Scientific) as per the manufacturer's instructions. TAMs and GBM cells were then mixed with a number ratio of 1:2 at a cell density of 1×10^8 cells/mL in the brain tissue-mimicking hydrogel. The final cell numbers of GBM and TAMs were about 1×10^5 cells per chip. […] Hydrogel solution was then quickly flushed into the hydrogel loading channel, and then incubated in an incubator at 37° C. and 5% CO2 for 30 min for complete gelation. After incubation, the media infusion channel and the vascular-seeding channel was flushed with fresh cell culture media for 2 hr. HBMVECs labeled with DiD (5 μM, V22887, Thermo Fisher-Scientific) were seeded into the vascular-seeding channel at a density of 5×10^6 cells/mL, and incubated at 37° C. and 5% CO2 overnight with fresh cell culture media. To form the vascular lumens, the microfluidic chip was flipped every 15 mins for 2 hr to let HBMVECs to uniformly attach to the vascular-seeding channel. After 24 hr′ incubation, IL-2 activated allogeneic CD8+ T-cells were firstly labeled with CellTracker Green (5 μM, C2925, Thermo Fisher-Scientific) and loaded into the vascular channel at a total cell number of 1×10^6 cells per chip. After culture in the incubator for 1-3 days, live cell images of different cell compartments were captured by an inverted fluorescent microscope (Zeiss Axio Observer.Z1).
Infiltrated CD8+ T-cells were defined as the CD8+ T-cells migrating out of vascular lumens. To quantify the migration behaviors of those CellTracker Green-labeled allogeneic CD8+ T-cells, time-lapsed image stacks were acquired every minute for 2 hr and at least three positions in each microfluidic chip. The cell centroids at different time points of the same cell were then used to calculate the cell migration speed and linked up to represent the migration trajectories by using ImageJ (NIH). The mean migration speeds were then averaged for all infiltrated cells. […]

[2] = test system: tumor-associated macrophages (TAMs); test: CD163 (M2-like marker) expression on TAM in GBM-on-a-Chip, immunostaining and qPCR
Method: U937 monocytes were polarized into macrophages with treatments of 5 nM PMA (Sigma-Aldrich) for 24 hr (Shi Y et al., Nature communications. 2017 Jun. 1; 8(1):1-7). Biomimetic TAMs (CD68+CD163+) were obtained by culturing U937-derived macrophages in complete culture media supplemented with supernatants of patient-derived GBM cells (5×10^5 cells/mL) which were collected after 3 days' culture and centrifuged at 2000×g for 10 min at 4° C. to remove cell debris. Cryopreserved human PBMCs (10HU-003, iXCells Biotechnologies) were thawed and cultured in RPMI-1640 medium (Gibco) supplemented with 10% FBS (Gibco) and 1% penicillin/streptomycin (Gibco) overnight before sorting for CD8+ T-cells. Allogeneic CD8+ T-cells were isolated from PBMCs via negative selection using MojoSort Human CD8 T-Cell Isolation Kit (MojoSort, 480011, Biolegend) as per the manufacturer's protocol (FIG. 7A through FIG. 7D). […]
To characterize the expression of surface marks on GBM cell, CD8+ T-cell and TAM, cells were firstly recovered with Corning Cell Recovery Solution (Corning, N.Y., USA) from the brain tissue-mimicking hydrogel. […] To quantify PD-1 expression on CD8+ T-cell, cells were first incubated with PD-1 primary antibody (367402, Biolegend) for 1 hr, and then visualized with Alexa Fluor 488 conjugated goat anti-mouse IgG secondary antibodies (Invitrogen, 5 μg/mL). […]

PD-L1 = test: qPCR analysis of PD-L1 expression in TAM and GBM cell
Method: Control groups were treated with fresh cell culture media supplemented with DMSO (0.01%) and human IgG4 isotype control antibody (1 μg/mL, BioLegend). Fresh cell culture media supplemented anti-PD-1 and anti-CSF-1R antibodies was loaded in the microfluidic channels 2 hr after loading allogeneic CD8+ T-cells. Blocking media was freshly prepared and replenished every 24 hr for 3 days.
RNA was extracted using RNeasy Plus Mini Kit (Qiagen, US), and cDNA was synthesized from the mRNA using SuperScript IV VILO Master Mix for RT-RCR (Invitrogen, US), followed by real-time PCR using a SYBR Green PCR Master Mix (Thermo Fisher Scientific, US) and QuantStudio six sequence detection system (Applied Biosystems, Thermo Fisher Scientific). The reactions were performed with the following cycling conditions: 95° C. for 10 min followed by 40 cycles of 95° C. for 15 s and 60° C. for 1 min. GAPDH was used as a housekeeping gene for normalization. All experiments were repeated three times. The relative change in gene expression was analyzed with the 2^−ΔΔCT method. […]

[3] = test system: patient-derived GBM cells; test: Quantification of GBM cell apoptosis (caspase-3/7 activation) in GBM-on-a-Chip; conditions: BLZ945 0.1 μg/ml, nivolumab 1 μg/ml, mono or dual; for GBM cell apoptosis with presence of microglia versus macrophage only system: HMC3 microglia present, PN, CL, MES GBM
Method: as §1
To examine the apoptosis of GBM cells in the microfluidic model, CellEvent Caspase-3/7 Green Detection Reagent (R37111, Thermo Fisher-Scientific) and Hoechst 33342 (5 μg/mL; H3570, Thermo Fisher-Scientific) were used to distinguish the apoptotic cells that with activated caspase-3/7 with bright green nuclei. […] The ratio of apoptotic GBM cells were calculated as the number of cells with green nuclei to the total number of GBM cells that were stained with CellTracker Red (5 μM, C34552, Thermo Fisher-Scientific). […]

allogeneic CD8+ T-cells [4] = test: CD8+ T-cell activation analysis (CD154 expression) in GBM-on-a-Chip; conditions: BLZ945 0.1 μg/ml, nivolumab 1 μg/ml, mono or dual, 3 days
Method: To characterize the expression of surface marks on GBM cell, CD8+ T-cell and TAM, cells were firstly recovered with Corning Cell Recovery Solution (Corning, N.Y., USA) from the brain tissue-mimicking hydrogel. Briefly, cell culture medium was aspirated, and the microfluidics chip was rinsed with cold 1× PBS twice, 10 min per round. PDMS slabs were detached from the cover glass in the microfluidics chip, followed by incubation with Corning Cell Recovery Solution on ice for 30 min. With gently pipetting the channel containing cells, the cell suspension was centrifuged, washed with cold 1 x PBS twice and then resuspended in 5% BSA blocking buffer. All cell samples were fixed in 4% paraformaldehyde (PFA) (Sigma-Aldrich) for 10 min at room temperature. […] To quantify PD-1 expression on CD8+ T-cell, cells were first incubated with PD-1 primary antibody (367402, Biolegend) for 1 hr, and then visualized with Alexa Fluor 488 conjugated goat anti-mouse IgG secondary antibodies (Invitrogen, 5 μg/mL). […] PD-1 and CD154 expressions on CD8+ T-cell, PD-L1 and CD163 expressions on macrophage were quantified based on the mean florescent intensity of cell staining using ImageJ (NIH). Alternatively, ratios of CD154+ or CD163+-cells were calculated relative to CD8+ cells or CD68+ cells, respectively. […]

Molecule | Allogeneic CD8+ T-cell extravasation / infiltrated CD8+ T-cells (allogeneic CD8+ T-cells [1]) | Allogeneic CD8+ T-cell extravasation / infiltrated CD8+ T-cells (allogeneic CD8+ T-cells [1]; listed as CSF-1R inhibitor) | M2-like marker CD163 expression on TAM / macrophage polarization toward M2 phenotype ([2]; BLZ945 0.1 μg/ml every 24 hr for 3 days, PN (GBML20), CL (GBML08), MES (GBML91) GBM subtypes) | CD163 expression in TAM by qPCR ([2]; BLZ945 0.1 μg/ml, qPCR) | PD-L1 expression in TAM and GBM cells (PD-L1; BLZ945 0.1 μg/ml alone, qPCR) | mRNA expression of PD-L1 in GBM cell (PD-L1; BLZ945 0.1 μg/ml, GBM cells co-cultured with TAM) | GBM cell apoptosis (caspase-3/7 activation) ([3]; 3 days, macrophage-only system) | GBM cell apoptosis with presence of microglia versus macrophage only system [3] | CD8+ T-cell activation (CD154 expression, CD154+CD8+ T-cells) (allogeneic CD8+ T-cells [4])
CNC(=O)c1cc(Oc2ccc3nc(N[C@@H]4CCCC[C@H]4O)sc3c2)ccn1 [BLZ945] | can significantly enhance allogeneic CD8+ T-cell extravasation across brain microvessels | increased allogeneic CD8+ T-cell infiltration in the tumor | suppressed the polarization of macrophages toward an immunosuppressive M2 phenotype in all three GBM subtypes with more significant CD163 marker suppression in the CL and MES GBM subtypes relative to the PN GBM; also recorded: limited expression of CD163 in all GBM subtypes | inhibition of CD163 expression in TAM | no significant change in PD-L1 expression for both TAM and GBM cells | did not change the PD-L1 expression in GBM cells | limited effect on tumor apoptosis | no significant difference with the GBM and macrophage only condition | did not significantly reverse the immunosuppression onto the cytotoxic CD8+ T-cell
nivolumab: human IgG4 anti-PD-1 monoclonal antibody; PD-1 blockade | did not increase the extravasation of allogeneic CD8+ T-cell | – | – | – | – | – | – | no significant difference with the GBM and macrophage only condition | did enhance CD8+T-cell activation in the PN and MES GBMs
